Laboratory results as given in patent US11339130B1 (Blade Therapeutics, Inc., priority 2016, dated 2022).

Columns and labels:
[1] = tested on: Calpain activity in SH-SY5Y cells; test: SH-SY5Y + AMC fluorescence assay (Suc-LLVY-AMC substrate); format: cell-based; details: Column E, read-out: SH-SY5Y + AMC IC50
[2] = tested on: Calpain activity in SH-SY5Y cells (SBDP-150); test: SH-SY5Y Spectrin western blot assay (SBDP-150 breakdown product, A23187-induced); format: cell-based; details: Homo sapiens; Column D; SH-SY5Y cells, A23187-induced SBDP-150; read-out: SH-SY5Y Spectrin IC50
Human Calpain 1/NS1 = molecular target: T1, Human Calpain 1/NS1 (Homo sapiens, UniProt P07384); test: Calpain inhibition continuous fluorescence (FRET) assay, Human Calpain 1/NS1; format: biochemical; details: Column A; read-out: Human Calpain 1/NS1 IC50
T1 sequence (P07384 1-714): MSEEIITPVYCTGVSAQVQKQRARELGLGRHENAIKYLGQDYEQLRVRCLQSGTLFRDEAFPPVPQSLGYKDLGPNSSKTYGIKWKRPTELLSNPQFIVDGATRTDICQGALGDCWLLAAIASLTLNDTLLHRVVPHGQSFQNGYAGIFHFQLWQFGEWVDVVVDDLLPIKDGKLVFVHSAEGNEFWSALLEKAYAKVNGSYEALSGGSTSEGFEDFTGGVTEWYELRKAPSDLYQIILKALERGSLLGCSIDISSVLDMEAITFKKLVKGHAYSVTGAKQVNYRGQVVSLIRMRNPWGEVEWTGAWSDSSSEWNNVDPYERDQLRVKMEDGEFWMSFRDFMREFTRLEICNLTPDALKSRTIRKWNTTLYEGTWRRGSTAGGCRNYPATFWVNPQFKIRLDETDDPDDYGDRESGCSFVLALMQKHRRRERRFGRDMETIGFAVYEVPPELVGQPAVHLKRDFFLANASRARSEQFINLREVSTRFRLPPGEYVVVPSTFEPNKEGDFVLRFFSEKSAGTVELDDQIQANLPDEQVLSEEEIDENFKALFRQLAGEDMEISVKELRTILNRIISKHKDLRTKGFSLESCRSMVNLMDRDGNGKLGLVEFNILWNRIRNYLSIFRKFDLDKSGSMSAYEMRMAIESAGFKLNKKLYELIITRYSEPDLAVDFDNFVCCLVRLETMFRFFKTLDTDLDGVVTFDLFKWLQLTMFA
T1 sequence (P04632 1-268 partner): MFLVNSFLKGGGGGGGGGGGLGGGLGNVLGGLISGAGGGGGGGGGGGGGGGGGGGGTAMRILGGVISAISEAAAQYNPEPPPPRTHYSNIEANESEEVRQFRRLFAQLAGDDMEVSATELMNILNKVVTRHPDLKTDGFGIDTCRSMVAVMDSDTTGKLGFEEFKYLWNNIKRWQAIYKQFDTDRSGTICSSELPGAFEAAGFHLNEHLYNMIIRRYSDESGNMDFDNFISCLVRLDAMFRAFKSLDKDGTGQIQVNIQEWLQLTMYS
In short: (§1)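 Buffer 50 mM Tris pH 7.5/100 mM NaCl/1 mM DTT; enzyme + cpd preinc 25C; start w/ FRET substrate + CaCl2; kinetic 490/520 nm, 10 min; slopes 1-5 min; 4-PL IC50.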

Human Calpain 9/NS1 = molecular target: T2, Human Calpain 9/NS1 (Homo sapiens, UniProt O14815); test: Calpain inhibition continuous fluorescence (FRET) assay, Human Calpain 9/NS1; format: biochemical; details: Column C; read-out: Human Calpain 9/NS1 IC50
T2 sequence (O14815 1-690): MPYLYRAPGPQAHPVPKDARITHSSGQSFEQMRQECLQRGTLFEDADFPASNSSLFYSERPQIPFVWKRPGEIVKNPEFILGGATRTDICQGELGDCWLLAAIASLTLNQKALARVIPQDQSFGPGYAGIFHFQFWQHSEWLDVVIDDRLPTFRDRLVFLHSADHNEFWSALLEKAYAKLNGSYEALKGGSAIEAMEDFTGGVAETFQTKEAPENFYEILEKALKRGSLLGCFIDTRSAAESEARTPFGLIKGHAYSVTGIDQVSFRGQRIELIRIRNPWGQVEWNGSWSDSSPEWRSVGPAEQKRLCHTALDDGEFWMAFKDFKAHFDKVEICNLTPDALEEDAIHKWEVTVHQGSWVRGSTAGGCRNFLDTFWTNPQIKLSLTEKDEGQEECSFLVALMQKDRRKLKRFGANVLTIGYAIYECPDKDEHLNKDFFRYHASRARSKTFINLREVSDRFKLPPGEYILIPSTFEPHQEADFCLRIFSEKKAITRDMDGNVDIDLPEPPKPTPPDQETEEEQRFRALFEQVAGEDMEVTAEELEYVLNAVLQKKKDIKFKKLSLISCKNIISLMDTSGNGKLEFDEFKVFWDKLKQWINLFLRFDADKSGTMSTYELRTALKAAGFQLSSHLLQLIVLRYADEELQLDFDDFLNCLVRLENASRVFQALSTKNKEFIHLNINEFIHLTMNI
T2 sequence (P04632 1-268 partner): T1 sequence (P04632 1-268 partner)
In short: as §1

Human Calpain 2/NS1 = molecular target: T3, Human Calpain 2/NS1 (Homo sapiens, UniProt P17655); test: Calpain inhibition continuous fluorescence (FRET) assay, Human Calpain 2/NS1; format: biochemical; details: Column B; read-out: Human Calpain 2/NS1 IC50
T3 sequence (P17655 1-700): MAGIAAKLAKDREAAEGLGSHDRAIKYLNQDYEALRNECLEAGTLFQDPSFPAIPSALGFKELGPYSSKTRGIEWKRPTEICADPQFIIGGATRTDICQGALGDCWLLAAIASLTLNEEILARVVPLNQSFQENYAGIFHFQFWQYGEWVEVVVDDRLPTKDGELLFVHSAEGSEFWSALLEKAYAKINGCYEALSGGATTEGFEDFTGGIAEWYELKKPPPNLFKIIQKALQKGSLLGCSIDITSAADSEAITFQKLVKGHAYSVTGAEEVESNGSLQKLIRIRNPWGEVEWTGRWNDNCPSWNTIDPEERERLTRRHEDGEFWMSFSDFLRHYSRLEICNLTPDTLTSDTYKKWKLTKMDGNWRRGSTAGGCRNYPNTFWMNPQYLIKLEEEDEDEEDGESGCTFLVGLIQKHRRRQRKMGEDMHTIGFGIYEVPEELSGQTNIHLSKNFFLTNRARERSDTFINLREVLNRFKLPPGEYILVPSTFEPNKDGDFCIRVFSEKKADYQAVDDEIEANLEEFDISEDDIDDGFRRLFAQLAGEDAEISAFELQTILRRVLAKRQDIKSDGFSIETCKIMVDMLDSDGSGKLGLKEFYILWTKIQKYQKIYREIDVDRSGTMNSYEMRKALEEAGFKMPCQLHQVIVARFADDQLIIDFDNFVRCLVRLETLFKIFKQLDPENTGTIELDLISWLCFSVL
T3 sequence (P04632 1-268 partner): T1 sequence (P04632 1-268 partner)
In short: as §1

| IC50 [1] | IC50 [2] | IC50 (Human Calpain 1/NS1) | IC50 (Human Calpain 9/NS1) | IC50 (Human Calpain 2/NS1) | Structure (SMILES) |
| --- | --- | --- | --- | --- | --- |
| > 25 µM | < 10 µM | < 3 µM | < 3 µM | < 3 µM | Cc1cc(C(=O)N[C@@H](Cc2ccccc2)C(=O)C(N)=O)n(-c2ccc(COCc3ccccc3)cc2)n1 [Compound 228, (S)—N-(4-amino-3,4-dioxo-1-phenylbutan-2-yl)-1-(4-((benzyloxy)methyl)phenyl)-3-methyl-1H-pyrazole-5-carboxamide] |
| < 10 µM | < 10 µM | < 3 µM | < 3 µM | < 3 µM | CCOCc1cccc(-n2nc(C)cc2C(=O)N[C@@H](Cc2ccccc2)C(=O)C(N)=O)c1 [Compound 229, (S)—N-(4-amino-3,4-dioxo-1-phenylbutan-2-yl)-1-(3-(ethoxymethyl)phenyl)-3-methyl-1H-pyrazole-5-carboxamide] |
| < 10 µM | < 10 µM | < 3 µM | < 3 µM | < 3 µM | Cc1cc(C(=O)N[C@@H](Cc2ccccc2)C(=O)C(N)=O)n(-c2cccc(COCc3ccccc3)c2)n1 [Compound 230, (S)—N-(4-amino-3,4-dioxo-1-phenylbutan-2-yl)-1-(3-((benzyloxy)methyl)phenyl)-3-methyl-1H-pyrazole-5-carboxamide] |
| > 25 µM | > 25 µM | < 3 µM | < 3 µM | < 3 µM | Cc1cc(C(=O)N[C@@H](Cc2ccccc2)C(=O)C(N)=O)n(-c2cccc(COc3ccccc3)c2)n1 [Compound 231, (S)—N-(4-amino-3,4-dioxo-1-phenylbutan-2-yl)-3-methyl-1-(3-(phenoxymethyl)phenyl)-1H-pyrazole-5-carboxamide] |
| < 10 µM | 10 to 25 µM | < 3 µM | < 3 µM | < 3 µM | CCn1cc(C(=O)N[C@@H](Cc2ccccc2)C(=O)C(N)=O)c(-c2ccccc2)n1 [Compound 239, (S)—N-(4-amino-3,4-dioxo-1-phenylbutan-2-yl)-1-ethyl-3-phenyl-1H-pyrazole-4-carboxamide] |
| < 10 µM | > 25 µM | < 3 µM | < 3 µM | < 3 µM | CC(C)n1cc(C(=O)N[C@@H](Cc2ccccc2)C(=O)C(N)=O)c(-c2ccccc2)n1 [Compound 242, (S)—N-(4-amino-3,4-dioxo-1-phenylbutan-2-yl)-1-isopropyl-3-phenyl-1H-pyrazole-4-carboxamide] |
| > 25 µM | 10 to 25 µM | < 3 µM | < 3 µM | < 3 µM | CC[C@H](NC(=O)c1oc(C)nc1-c1ccccc1)C(=O)C(N)=O [Compound 243, (S)—N-(1-amino-1,2-dioxopentan-3-yl)-2-methyl-4-phenyloxazole-5-carboxamide] |
| < 10 µM | > 25 µM | < 3 µM | < 3 µM | < 3 µM | Cc1cc(C(=O)N[C@@H](Cc2ccccc2)C(=O)C(N)=O)n(-c2ccnc(C)n2)n1 [Compound 244, (S)—N-(4-amino-3,4-dioxo-1-phenylbutan-2-yl)-3-methyl-1-(2-methylpyrimidin-4-yl)-1H-pyrazole-5-carboxamide] |
| < 10 µM | 10 to 25 µM | < 3 µM | < 3 µM | < 3 µM | Cc1cc(C(=O)N[C@@H](Cc2ccccc2)C(=O)C(N)=O)n(-c2ccncn2)n1 [Compound 245, (S)—N-(4-amino-3,4-dioxo-1-phenylbutan-2-yl)-3-methyl-1-(pyrimidin-4-yl)-1H-pyrazole-5-carboxamide] |
| < 10 µM | 10 to 25 µM | < 3 µM | < 3 µM | < 3 µM | Cc1cc(C(=O)N[C@@H](Cc2ccccc2)C(=O)C(N)=O)n(-c2ccnc(Cl)n2)n1 [Compound 246, (S)—N-(4-amino-3,4-dioxo-1-phenylbutan-2-yl)-1-(2-chloropyrimidin-4-yl)-3-methyl-1H-pyrazole-5-carboxamide] |
| < 10 µM | < 10 µM | < 3 µM | < 3 µM | < 3 µM | Cc1nc(-c2ccc(F)cc2)c(C(=O)N[C@@H](Cc2ccccc2)C(=O)C(N)=O)o1 [Compound 248, (S)—N-(4-amino-3,4-dioxo-1-phenylbutan-2-yl)-4-(4-fluorophenyl)-2-methyloxazole-5-carboxamide] |
| > 25 µM | 10 to 25 µM | < 3 µM | < 3 µM | < 3 µM | NC(=O)C(=O)[C@H](Cc1ccccc1)NC(=O)c1c(-c2ccccc2)oc2ccccc12 [Compound 249, (S)—N-(4-amino-3,4-dioxo-1-phenylbutan-2-yl)-2-phenylbenzofuran-3-carboxamide] |
| > 25 µM | > 25 µM | < 3 µM | < 3 µM | < 3 µM | NC(=O)C(=O)[C@H](Cc1ccccc1)NC(=O)c1cn(CC2CC2)nc1-c1ccccc1 [Compound 251, (S)—N-(4-amino-3,4-dioxo-1-phenylbutan-2-yl)-1-(cyclopropylmethyl)-3-phenyl-1H-pyrazole-4-carboxamide] |
| > 25 µM | > 25 µM | > 10 µM | > 10 µM | > 10 µM | NC(=O)C(=O)[C@H](Cc1ccccc1)NC(=O)c1cn(C#Cc2ccccc2)c2ccccc12 [Compound 252, (S)—N-(4-amino-3,4-dioxo-1-phenylbutan-2-yl)-1-(phenylethynyl)-1H-indole-3-carboxamide] |
| > 25 µM | 10 to 25 µM | < 3 µM | < 3 µM | < 3 µM | Cc1nc(-c2ccccc2)c(C(=O)N[C@@H](CC(C)C)C(=O)C(N)=O)o1 [Compound 253, (S)—N-(1-amino-5-methyl-1,2-dioxohexan-3-yl)-2-methyl-4-phenyloxazole-5-carboxamide] |
